Structures can show the parent of a compound that is named as a salt.
Tests used:
[1] = test system: mitochondrial transcription (7S RNA) in HeLa cells; experiment: Quantitative real time-PCR assay of inhibition of mitochondrial transcription (7S RNA) in HeLa cells; type: cell-based; conditions: Homo sapiens, 4 h compound incubation, according to Example 5, read-out: cellular qPCR assay
Summary of the method: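 HeLa cells were exposed to compound dilution series or DMSO for 4 h, then RNA was extracted, normalized and reverse-transcribed. TaqMan qRT-PCR measured short-lived 7S RNA, with POLRMT as nuclear-transcription readout and TBP as housekeeping gene. Biological triplicates were analyzed by ΔΔCt and reported as Rq % (2−ΔΔCt).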

[2] = molecular target: mitochondrial RNA polymerase (POLRMT) (Mus musculus, UniProt Q8BKF1); experiment: Homogeneous TR-FRET assay for mitochondrial transcription activity; type: biochemical; conditions: homogeneous TR-FRET assay according to Example 4
Summary of the method: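 Read-out is TR-FRET (ex 340, em 665 nm) from two adjacent labelled DNA probes annealing to the 407 bp transcript after EDTA/700 mM NaCl stop. Reaction: murine POLRMT, TFAM, TFB2M and LSP plasmid template, compound 10 μM or serial dilution, 10 min rt preincubation, 500 μM each nucleotide, 2 h rt.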

Chain of mitochondrial RNA polymerase (POLRMT) (Q8BKF1 42-1207): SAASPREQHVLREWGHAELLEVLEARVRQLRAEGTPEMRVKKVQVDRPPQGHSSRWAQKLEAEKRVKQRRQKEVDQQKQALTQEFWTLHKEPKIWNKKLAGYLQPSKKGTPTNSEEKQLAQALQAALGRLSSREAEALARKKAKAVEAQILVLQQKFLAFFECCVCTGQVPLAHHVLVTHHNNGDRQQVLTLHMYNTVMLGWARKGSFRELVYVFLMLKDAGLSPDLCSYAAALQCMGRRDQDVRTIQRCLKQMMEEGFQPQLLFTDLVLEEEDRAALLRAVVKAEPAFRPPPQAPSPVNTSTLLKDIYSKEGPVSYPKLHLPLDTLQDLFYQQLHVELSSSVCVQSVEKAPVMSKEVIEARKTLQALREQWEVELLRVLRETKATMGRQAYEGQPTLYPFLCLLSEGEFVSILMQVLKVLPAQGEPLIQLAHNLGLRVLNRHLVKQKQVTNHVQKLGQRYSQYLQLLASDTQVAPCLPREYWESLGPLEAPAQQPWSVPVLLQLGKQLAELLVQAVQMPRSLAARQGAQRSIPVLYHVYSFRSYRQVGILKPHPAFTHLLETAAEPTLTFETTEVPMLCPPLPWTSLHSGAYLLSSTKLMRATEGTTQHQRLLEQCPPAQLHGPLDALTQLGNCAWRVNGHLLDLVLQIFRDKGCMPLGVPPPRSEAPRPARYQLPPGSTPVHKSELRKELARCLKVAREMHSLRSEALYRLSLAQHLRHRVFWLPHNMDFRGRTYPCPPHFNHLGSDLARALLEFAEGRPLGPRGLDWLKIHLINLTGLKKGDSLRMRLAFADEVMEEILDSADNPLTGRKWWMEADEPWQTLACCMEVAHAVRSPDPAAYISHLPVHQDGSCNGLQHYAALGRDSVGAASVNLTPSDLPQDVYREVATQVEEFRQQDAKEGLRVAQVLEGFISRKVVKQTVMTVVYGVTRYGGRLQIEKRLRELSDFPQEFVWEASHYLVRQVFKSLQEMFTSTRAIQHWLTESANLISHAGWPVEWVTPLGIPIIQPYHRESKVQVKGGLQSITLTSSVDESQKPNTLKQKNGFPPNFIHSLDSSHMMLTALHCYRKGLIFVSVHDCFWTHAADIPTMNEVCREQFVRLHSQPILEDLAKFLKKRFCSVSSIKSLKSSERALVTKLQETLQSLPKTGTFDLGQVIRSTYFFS

| Compound | IC50 [1] [nM] | IC50 [2] [nM] |
| --- | --- | --- |
| Cc1cc(F)cc(C)c1-c1ccnc2cc(O[C@H](C)C(=O)N3CCCC[C@@H]3C)ccc12 [Compound 176, (2R)-2-[[4-(4-fluoro-2,6-dimethyl-phenyl)-7-quinolyl]oxy]-1-[(2S)-2-methyl-1-piperidyl]propan-1-one] | 10 to 50 | < 20 |
| C[C@@H](Oc1ccc2c(-c3ccc(F)cc3Cl)ccnc2c1)C(=O)N1CCC=C(C(=O)O)C1 [Compound 219, 1-[(2R)-2-[[4-(2-chloro-4-fluoro-phenyl)-7-quinolyl]oxy]propanoyl]-3,6-dihydro-2H-pyridine-5-carboxylic acid] | 50 to 500 | 20 to 100 |
| C[C@@H](Oc1ccc2c(-c3ccc(F)cc3Cl)ccnc2c1)C(=O)NC(C)(C)C [Compound 47, (2R)-N-tert-butyl-2-[[4-(2-chloro-4-fluoro-phenyl)-7-quinolyl]oxy]propanamide] | 10 to 50 | 100 to 1000 |
| CC(C)N(C)C(=O)[C@@H](C)Oc1ccc2c(-c3ccc(F)cc3Cl)ccnc2c1 [Compound 32, (2R)-2-[[4-(2-chloro-4-fluoro-phenyl)-7-quinolyl]oxy]-N-isopropyl-N-methyl-propanamide] | 10 to 50 | 100 to 1000 |
| Cc1cccc(C)c1-c1ccnc2cc(O[C@H](C)C(=O)N3CCC[C@H](CC(=O)O)C3)ccc12 [Compound 3, 2-[(3R)-1-[(2R)-2-[[4-(2,6-dimethylphenyl)-7-quinolyl]oxy]propanoyl]-3-piperidyl]acetic acid] | < 10 | < 20 |
| C[C@@H](Oc1ccc2c(-c3c(Cl)cc(F)cc3Cl)ccnc2c1)C(=O)N1CCC2(CCNC2=O)CC1 [Compound 202, 8-[(2R)-2-[[4-(2,6-dichloro-4-fluoro-phenyl)-7-quinolyl]oxy]propanoyl]-2,8-diazaspiro[4.5]decan-1-one] | 10 to 50 | 100 to 1000 |
| C[C@@H](Oc1ccc2c(-c3ccc(F)cc3Cl)ccnc2n1)C(=O)N1CCC[C@H](C(=O)O)C1 [Compound 126, (3S)-1-[(2R)-2-[[5-(2-chloro-4-fluoro-phenyl)-1,8-naphthyridin-2-yl]oxy]propanoyl]piperidine-3-carboxylic acid] | 10 to 50 | 100 to 1000 |
| CC(C)OC(=O)[C@@H](C)Oc1ccc2c(-c3ccccc3Cl)ccnc2c1 [Compound 36, (R)-isopropyl 2-((4-(2-chlorophenyl)quinolin-7 yl)oxy)propanoate FA salt] | 50 to 500 | 100 to 1000 |
| C[C@@H](Oc1ccc2c(-c3c(Cl)cc(F)cc3Cl)ccnc2c1)C(=O)N1CCC[C@H](C(=O)O)C1 [Compound 132, (3S)-1-[(2R)-2-[[4-(2,6-dichloro-4-fluoro-phenyl)-7-quinolyl]oxy]propanoyl]piperidine-3-carboxylic acid] | < 10 | < 20 |
| C[C@@H](Oc1ccc2c(-c3ccc(F)cc3Cl)cc(Cl)nc2c1)C(=O)N1CCC[C@H](CC(=O)O)C1 [Compound 56, 2-[(3R)-1-[(2R)-2-[[2-chloro-4-(2-chloro-4-fluoro-phenyl)-7-quinolyl]oxy]propanoyl]-3-piperidyl]acetic acid] | 50 to 500 | 100 to 1000 |
| Cc1cc(-c2ccccc2C)c2ccc(O[C@H](C)C(=O)N3CCC[C@H](C(=O)O)C3)cc2n1 [Compound 31, (3S)-1-[(2R)-2-[[2-methyl-4-(o-tolyl)-7-quinolyl]oxy]propanoyl]piperidine-3-carboxylic acid] | < 10 | 100 to 1000 |
| Cc1cscc1-c1ccnc2cc(O[C@H](C)C(=O)N3CCC[C@H](CC(=O)O)C3)ccc12 [Compound 133, 2-[(3R)-1-[(2R)-2-[[4-(4-methyl-3-thienyl)-7-quinolyl]oxy]propanoyl]-3-piperidyl]acetic acid] | 50 to 500 | 100 to 1000 |
| C[C@@H](Oc1ccc2c(-c3ccccc3Cl)cc(Cl)nc2c1)C(=O)N1CCC[C@H](C(=O)O)C1 [Compound 34, (3S)-1-[(2R)-2-[[2-chloro-4-(2-chlorophenyl)-7-quinolyl]oxy]propanoyl]piperidine-3-carboxylic acid] | 10 to 50 | 100 to 1000 |

From patent publication US12281079B2, “Quinoline derivatives, processes for their preparation and uses thereof for the treatment of cancer” (Lead Discovery Center GmbH, priority 2019, dated 2025)
